# Reference: patent US20250034107A1, “SUBSTITUTED 2-(2-(2,6-DIOXOPIPERIDIN-3-YL)-1- OXOISOINDOLIN-5-YL) ACETAMIDE ANALOGS AS MODULATORS OF GSPT1 AND/OR IKZF1 PROTEIN” (St. Jude Children's Research Hospital, Inc., priority 2021, published 2025)
# Columns and labels:
# [1] = target: T1, hGSPT1 (Homo sapiens, UniProt P15170+Q96SW2); assay: hGSPT1 HiBiT assay (level of GSPT1 HiBiT tag protein, Nano-Glo HiBiT Lytic Detection); format: cell-based; details: HEK293 hGSPT1 HiBiT tag cells, 4 hrs incubation
# T1 construct: host or cells: HEK293
# Protocol: HEK293 hGSPT1 HiBiT tag cells were seeded in white 384-well assay plates at density of 800 cells per well in triplicates. After overnight incubation, cells were treated with compounds in dose-response format using a Pintool on a Biomek FXP Laboratory Automation Workstation (Beckman Coulter). After 4 hrs incubation, the level of GSPT1 HiBiT tag protein was evaluated using Nano-Glo® HiBiT Lytic Detection System (Promega) according to the manufacturer's instruction. Luminescence signal was measured using an Envision plate reader (Perkin-Elmer).
# [2] = system: MHHCALL4 cells; assay: Cell proliferation assay (Cell Titer-Glo), MHH-CALL-4 cells; format: cell-based, human; details: 72 h incubation; for EC50: Homo sapiens
# Protocol: (§1) MV-4-11 cell line was purchased from the American Type Culture Collection (ATCC, Manassas, VA) and maintained in Iscove's Modified Dulbecco's medium (IMDM; (ATCC) supplemented with 10% FBS. MHHCALL4 cell line was purchased from the German Collection of Microorganisms and Cell Cultures GmbH (DSMZ) and maintained in RPMI 1640 medium supplemented with 10% fetal bovine serum (HyClone), penicillin/streptomycin (100 U/mL), and glutamine ([…]) at 37° C. in a humidified 5% C02 incubator. Exponentially growing MV-4-11 cells were plated at 1250 cells per well and MHH-CALL-4 cells were plated at 7,500 cells per well in Corning 8804BC white 384-well assay plates and incubated overnight at 37° C. in a humidified 5% CO2 incubator. Compounds were transferred to the assay plate from a dose-response plate using a Pintool on a Biomek FXP Laboratory Automation Workstation (Beckman Coulter). Cytotoxicity was determined following 72 hours of incubation using Promega Cell Titer Glo reagent according to the manufacturer's recommendation. Luminescence was measured on an Envision plate reader (Perkin-Elmer).
# (§2) Compounds were screened in human cancer cell lines and each cell line was cultured in the complete medium recommended by the vendor and seeded in Corning 8804BC white 384-well assay plates at density of 1250 cells per well for MV-4-11 cells and of 7,500 cells per well for MHH-CALL-4 cells. After overnight incubation at 37° C. in a humidified 5% CO2 incubator, cells were treated with compounds in dose-response format using a Pintool on a Biomek FXP Laboratory Automation Workstation (Beckman Coulter). After 72 h incubation, cell proliferation was assessed using Cell Titer-Gbo (CTG) luminescent cell viability assay (Promega) according to the manufacturer's instruction. Luminescence signal was measured using an Envision plate reader (Perkin-Elmer).
# [3] = system: MV-4-11 cells; assay: Cell proliferation assay (Cell Titer-Glo), MV-4-11 cells; format: cell-based; details: Homo sapiens, MV4-11; MV411 cells, 72 h incubation
# Protocol: as §1, §2
# [4] = system: neosubstrate degradation; details: more potent in cells than lenalidomide; see Ref. 13; cited from earlier work
# T1 sequence (P15170 whole entry): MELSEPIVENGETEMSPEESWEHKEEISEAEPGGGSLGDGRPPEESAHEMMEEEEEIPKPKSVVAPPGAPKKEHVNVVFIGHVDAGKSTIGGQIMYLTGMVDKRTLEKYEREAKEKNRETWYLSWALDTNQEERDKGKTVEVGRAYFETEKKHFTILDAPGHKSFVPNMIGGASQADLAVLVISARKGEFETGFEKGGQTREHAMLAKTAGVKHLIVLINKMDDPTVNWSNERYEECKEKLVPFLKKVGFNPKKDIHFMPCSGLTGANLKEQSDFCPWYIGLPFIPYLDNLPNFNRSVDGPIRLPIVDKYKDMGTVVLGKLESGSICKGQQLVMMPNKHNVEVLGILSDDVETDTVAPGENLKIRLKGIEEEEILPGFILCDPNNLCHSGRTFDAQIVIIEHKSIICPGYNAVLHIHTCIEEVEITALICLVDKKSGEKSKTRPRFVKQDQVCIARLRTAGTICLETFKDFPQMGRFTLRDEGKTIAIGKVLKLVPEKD
# T1 sequence (Q96SW2 whole entry): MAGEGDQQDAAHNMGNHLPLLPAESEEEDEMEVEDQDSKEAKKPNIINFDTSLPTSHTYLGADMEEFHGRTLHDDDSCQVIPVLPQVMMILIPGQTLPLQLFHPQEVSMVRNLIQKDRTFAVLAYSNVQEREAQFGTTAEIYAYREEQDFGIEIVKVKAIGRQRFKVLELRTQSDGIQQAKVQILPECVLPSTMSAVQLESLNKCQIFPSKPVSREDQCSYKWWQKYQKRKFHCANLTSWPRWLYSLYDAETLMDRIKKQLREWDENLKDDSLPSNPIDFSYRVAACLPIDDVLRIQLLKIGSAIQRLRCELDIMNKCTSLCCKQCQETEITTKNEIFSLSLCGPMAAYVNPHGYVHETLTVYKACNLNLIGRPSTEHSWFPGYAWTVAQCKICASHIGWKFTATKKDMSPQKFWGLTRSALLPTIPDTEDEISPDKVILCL
# T1 sequence (Q16531 whole entry partner): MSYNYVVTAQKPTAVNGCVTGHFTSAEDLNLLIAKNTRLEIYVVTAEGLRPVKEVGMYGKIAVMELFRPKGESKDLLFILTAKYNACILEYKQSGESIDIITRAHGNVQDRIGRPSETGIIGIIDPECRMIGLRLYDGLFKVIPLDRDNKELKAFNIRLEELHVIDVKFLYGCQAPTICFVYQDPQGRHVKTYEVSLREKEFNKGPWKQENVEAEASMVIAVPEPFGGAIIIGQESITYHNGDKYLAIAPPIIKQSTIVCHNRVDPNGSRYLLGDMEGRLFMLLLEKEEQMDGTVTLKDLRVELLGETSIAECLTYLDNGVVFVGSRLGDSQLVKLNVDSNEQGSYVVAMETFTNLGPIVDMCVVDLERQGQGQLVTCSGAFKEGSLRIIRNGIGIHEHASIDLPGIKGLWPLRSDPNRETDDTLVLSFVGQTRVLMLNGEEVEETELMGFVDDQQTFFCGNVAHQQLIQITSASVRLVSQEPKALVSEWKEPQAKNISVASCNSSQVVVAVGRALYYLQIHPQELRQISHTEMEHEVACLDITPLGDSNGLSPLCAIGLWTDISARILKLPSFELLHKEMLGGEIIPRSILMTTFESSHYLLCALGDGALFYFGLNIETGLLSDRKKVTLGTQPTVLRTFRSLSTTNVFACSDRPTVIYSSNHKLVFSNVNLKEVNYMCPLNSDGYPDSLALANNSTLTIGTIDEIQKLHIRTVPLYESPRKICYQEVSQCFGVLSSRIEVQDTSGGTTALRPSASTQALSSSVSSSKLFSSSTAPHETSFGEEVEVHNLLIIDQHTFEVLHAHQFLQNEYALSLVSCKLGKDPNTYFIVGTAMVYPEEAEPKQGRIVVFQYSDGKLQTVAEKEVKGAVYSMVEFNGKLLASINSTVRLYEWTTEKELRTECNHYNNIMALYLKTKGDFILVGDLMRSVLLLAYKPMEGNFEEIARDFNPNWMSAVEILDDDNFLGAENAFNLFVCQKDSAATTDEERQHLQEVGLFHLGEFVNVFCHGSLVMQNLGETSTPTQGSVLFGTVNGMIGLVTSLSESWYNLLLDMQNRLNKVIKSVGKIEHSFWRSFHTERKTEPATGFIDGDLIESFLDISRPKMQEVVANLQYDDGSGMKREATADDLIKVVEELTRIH
DC50 [1],EC50 [3],SMILES,EC50 [2],"MHHCALL4 Cell Proliferation Assay, result in words ([2]; printed in place of an EC50)",potency in cells relative to lenalidomide [4]
< 1 nM,2 nM,O=C1CCC(N2Cc3cc(CC(=O)Nc4ccc(N5CCCCC5)cc4)ccc3C2=O)C(=O)N1 (stereo not drawn) [Compound 23],< 1 nM,,
< 1 nM,< 1 nM,O=C1CCC(N2Cc3cc(CC(=O)Nc4cccc(OCc5ccccc5)c4)ccc3C2=O)C(=O)N1 (stereo not drawn) [Compound 22],< 1 nM,,
> 2700 nM,> 2200 nM,O=C1CCC(N2Cc3cc(CC(=O)N4CCOCC4)ccc3C2=O)C(=O)N1 (stereo not drawn) [Compound 14],21 nM,,
,5 nM,COc1cccc(NC(=O)Cc2ccc3c(c2)CN(C2CCC(=O)NC2=O)C3=O)c1 (stereo not drawn) [Compound 19],< 1 nM,,
> 8100 nM,744 nM,O=C1CCC(N2Cc3cc(CC(=O)Nc4ccccc4)ccc3C2=O)C(=O)N1 (stereo not drawn) [Compound 17],4 nM,,
< 1 nM,5 nM,O=C1CCC(N2Cc3cc(CC(=O)Nc4cccc(Cl)c4)ccc3C2=O)C(=O)N1 (stereo not drawn) [Compound 20],< 1 nM,,
,> 8700 nM,O=C1CCC(N2Cc3cc(CC(=O)N4CCCCC4)ccc3C2=O)C(=O)N1 (stereo not drawn) [Compound 15],> 10700 nM,,
< 1 nM,,O=C(Cc1ccc2c(c1)CN(C1CCC(=O)NC1=O)C2=O)NCc1ccc(Cl)cc1 (stereo not drawn) [Compound 16],< 1 nM,,
> 5970 nM,> 4900 nM,Cc1ccccc1NC(=O)Cc1ccc2c(c1)CN(C1CCC(=O)NC1=O)C2=O (stereo not drawn) [Compound 18],2 nM,,
> 3110 nM,> 4500 nM,O=C1CCC(N2Cc3cc(CC(=O)Nc4cccc(F)c4)ccc3C2=O)C(=O)N1 (stereo not drawn) [Compound 21],< 1 nM,,

# The remaining lines, values behind:
SMILES,DC50 [1],EC50 [3],EC50 [2],"MHHCALL4 Cell Proliferation Assay, result in words ([2]; printed in place of an EC50)",potency in cells relative to lenalidomide [4]
O=C(Cc1ccc2c(c1)CN(C1CCC(=O)NC1=O)C2=O)NCCc1ccccc1 (stereo not drawn) [Compound 11],< 1 nM,,< 1 nM,,
CCN(C(=O)Cc1ccc2c(c1)CN(C1CCC(=O)NC1=O)C2=O)c1ccccc1 (stereo not drawn) [Compound 3],,> 8700 nM,> 10700 nM,,
Cc1ccc(CNC(=O)Cc2ccc3c(c2)CN(C2CCC(=O)NC2=O)C3=O)cc1 (stereo not drawn) [Compound 8],< 1 nM,< 1 nM,< 1 nM,,
O=C(Cc1ccc2c(c1)CN(C1CCC(=O)NC1=O)C2=O)NCc1ccc(F)cc1 (stereo not drawn) [Compound 9],< 1 nM,3 nM,< 1 nM,,
CCN(CC)C(=O)Cc1ccc2c(c1)CN(C1CCC(=O)NC1=O)C2=O (stereo not drawn) [Compound 5],,> 1730 nM,,,
CC(C)NC(=O)Cc1ccc2c(c1)CN(C1CCC(=O)NC1=O)C2=O (stereo not drawn) [Compound 6],,> 6900 nM,> 8500 nM,,
COc1ccc(NC(=O)Cc2ccc3c(c2)CN(C2CCC(=O)NC2=O)C3=O)cc1 (stereo not drawn) [Compound 13],< 1 nM,< 1 nM,< 1 nM,,
COCCNC(=O)Cc1ccc2c(c1)CN(C1CCC(=O)NC1=O)C2=O (stereo not drawn) [Compound 4],,> 6700 nM,> 8200 nM,,
O=C1CCC(N2Cc3cc(CC(=O)NC4CCCCC4)ccc3C2=O)C(=O)N1 (stereo not drawn) [Compound 2],> 7100 nM,> 5800 nM,,cytostatic at 10 nM,
O=C(Cc1ccc2c(c1)CN(C1CCC(=O)NC1=O)C2=O)NCc1ccccc1 (stereo not drawn) [Compound 1],< 1 nM,< 1 nM,< 1 nM,,
O=C(Cc1ccc2c(c1)CN(C1CCC(=O)NC1=O)C2=O)NCc1cccc2ccccc12 (stereo not drawn) [Compound 12],< 1 nM,5 nM,< 1 nM,,
O=C(Cc1ccc2c(c1)CN(C1CCC(=O)NC1=O)C2=O)NCc1cccc(C(F)(F)F)c1 (stereo not drawn) [Compound 10],< 1 nM,< 1 nM,< 1 nM,,
O=C(Cc1ccc2c(c1)CN(C1CCC(=O)NC1=O)C2=O)NCC1CC1 (stereo not drawn) [Compound 7],,> 8200 nM,> 10100 nM,,
O=C1CC[C@H](N2Cc3c(OCc4ccc(CN5CCOCC5)cc4)cccc3C2=O)C(=O)N1 [CC-220],,,,,10 fold
